Data reported in ChEMBL document CHEMBL1201862, “PubChem BioAssay data set” (2004).
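These data come from cells grown in 96-well plates and exposed to compound for 48 hours at five concentrations. Here, GI50 denotes the concentration required for 50% inhibition of growth.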 Activity calls are given as the source filed them. No stated cut-off is given here; in the data, active = GI50 up to about 1.1 µM and inactive = higher.

How the values were obtained:
Test in all cases: DTP human tumour cell line panel, 48 h
786-0 = test system: 786-0
A498 = test system: A498
A549 = test system: A549
ACHN = test system: ACHN
BT-549 = test system: BT-549
CAKI-1 = test system: CAKI-1
CCRF-CEM = test system: CCRF-CEM
COLO 205 = test system: COLO 205
DU-145 = test system: DU-145
EKVX = test system: EKVX
HCC 2998 = test system: HCC 2998
HCT-116 = test system: HCT-116
HCT-15 = test system: HCT-15
HL-60 = test system: HL-60
HOP-62 = test system: HOP-62
HOP-92 = test system: HOP-92
HT-29 = test system: HT-29
Hs-578T = test system: Hs-578T
IGROV-1 = test system: IGROV-1
K562 = test system: K562
KM12 = test system: KM12
LOX IMVI = test system: LOX IMVI
M14 = test system: M14
MCF7 = test system: MCF7
MDA-MB-231 = test system: MDA-MB-231
MDA-MB-435 = test system: MDA-MB-435
MDA-N = test system: MDA-N
MOLT-4 = test system: MOLT-4
NCI-H460 = test system: NCI-H460
NCI/ADR-RES = test system: NCI/ADR-RES
OVCAR-3 = test system: OVCAR-3
OVCAR-4 = test system: OVCAR-4
OVCAR-5 = test system: OVCAR-5
OVCAR-8 = test system: OVCAR-8
PC-3 = test system: PC-3
RPMI-8226 = test system: RPMI-8226
SF-268 = test system: SF-268
SF-295 = test system: SF-295
SF-539 = test system: SF-539
SK-MEL-28 = test system: SK-MEL-28
SK-MEL-2 = test system: SK-MEL-2
SK-MEL-5 = test system: SK-MEL-5
SK-OV-3 = test system: SK-OV-3
SN12C = test system: SN12C
SNB-19 = test system: SNB-19
SR = test system: SR
SW-620 = test system: SW-620
T47D = test system: T47D
TK-10 = test system: TK-10
U-251 = test system: U-251
UACC-257 = test system: UACC-257
UACC-62 = test system: UACC-62
UO-31 = test system: UO-31
Malme-3M = test system: Malme-3M
NCI-H226 = test system: NCI-H226
NCI-H23 = test system: NCI-H23
NCI-H522 = test system: NCI-H522
RXF 393 = test system: RXF 393
SNB-75 = test system: SNB-75

Measured: GI50

c1ccc2c(-c3ccnc(-c4c[nH]c5ccccc45)n3)c[nH]c2c1
3.19 µM: HCT-15
inactive: 786-0 2.12 µM | A498 2.23 µM | A549 3.27 µM | ACHN 3.13 µM | BT-549 > 100 µM | CAKI-1 4.25 µM | CCRF-CEM 1.51 µM | COLO 205 5.45 µM | DU-145 12.4 µM | EKVX 6.4 µM | HCC 2998 2.79 µM | HCT-116 4.36 µM | HL-60 2.29 µM | HOP-62 10.4 µM | HOP-92 1.7 µM | HT-29 2.7 µM | Hs-578T 2.81 µM | K562 4.13 µM | KM12 3.94 µM | LOX IMVI 2.82 µM | M14 1.99 µM | MCF7 2.74 µM | MDA-MB-231 1.85 µM | MDA-MB-435 4.52 µM | MDA-N 2.78 µM | MOLT-4 1.87 µM | NCI-H460 2.87 µM | NCI/ADR-RES 16.4 µM | OVCAR-3 6.4 µM | OVCAR-4 8.69 µM | OVCAR-5 > 100 µM | OVCAR-8 5.93 µM | PC-3 2.72 µM | RPMI-8226 1.91 µM | SF-268 10.6 µM | SF-295 2.93 µM | SF-539 4.37 µM | SK-MEL-28 6.9 µM | SK-MEL-2 4.16 µM | SK-MEL-5 3.27 µM | SK-OV-3 10.7 µM | SN12C 2.78 µM | SNB-19 4.81 µM | SR 4.25 µM | SW-620 4.86 µM | T47D 3.85 µM | TK-10 8.67 µM | U-251 3.86 µM | UACC-257 4.34 µM | UACC-62 1.95 µM | UO-31 3.98 µM
active: IGROV-1 < 0.01 µM

O=C(O)/C(Cc1ccc([N+](=O)[O-])cc1)=N\O
inactive: 786-0 > 100 µM | A498 > 100 µM | A549 > 100 µM | ACHN > 100 µM | BT-549 76.2 µM | CAKI-1 > 100 µM | CCRF-CEM 73.6 µM | COLO 205 > 100 µM | DU-145 > 100 µM | EKVX 39.1 µM | HCC 2998 > 100 µM | HCT-116 > 100 µM | HL-60 61.9 µM | HOP-62 > 100 µM | HOP-92 27.9 µM | HT-29 > 100 µM | Hs-578T 31.8 µM | IGROV-1 69.8 µM | K562 > 100 µM | KM12 > 100 µM | LOX IMVI > 100 µM | M14 > 100 µM | MCF7 > 100 µM | MDA-MB-231 > 100 µM | MDA-MB-435 > 100 µM | MDA-N > 100 µM | Malme-3M > 100 µM | NCI-H226 > 100 µM | NCI-H23 > 100 µM | NCI-H460 > 100 µM | NCI-H522 29.6 µM | NCI/ADR-RES > 100 µM | OVCAR-3 > 100 µM | OVCAR-4 89.5 µM | OVCAR-5 > 100 µM | OVCAR-8 > 100 µM | PC-3 > 100 µM | RPMI-8226 > 100 µM | RXF 393 > 100 µM | SF-268 > 100 µM | SF-295 > 100 µM | SF-539 > 100 µM | SK-MEL-28 > 100 µM | SK-MEL-2 > 100 µM | SK-MEL-5 > 100 µM | SK-OV-3 > 100 µM | SN12C > 100 µM | SNB-19 > 100 µM | SW-620 > 100 µM | T47D 94.6 µM | TK-10 > 100 µM | U-251 > 100 µM | UACC-257 > 100 µM | UACC-62 > 100 µM | UO-31 23.8 µM
> 100 µM: HCT-15

COc1ccc(/C(=N/N=c2\[nH]c3ccccc3n2Cc2ccccc2)C(=O)O)cc1
12.6 µM: HCT-15
inactive: 786-0 5.12 µM | A498 13.1 µM | A549 23 µM | ACHN 22.6 µM | BT-549 25.1 µM | CAKI-1 16.7 µM | CCRF-CEM 3.97 µM | COLO 205 4.03 µM | DU-145 30.7 µM | EKVX 31.3 µM | HCC 2998 10 µM | HCT-116 12.7 µM | HL-60 3.19 µM | HOP-62 10.5 µM | HOP-92 11.7 µM | HT-29 22 µM | Hs-578T 31.7 µM | IGROV-1 6.92 µM | K562 22.7 µM | KM12 17.5 µM | LOX IMVI 6.89 µM | M14 14.5 µM | MCF7 13.2 µM | MDA-MB-231 23.3 µM | MDA-MB-435 21.1 µM | MDA-N 32 µM | MOLT-4 7.8 µM | Malme-3M 17.6 µM | NCI-H226 20.2 µM | NCI-H23 14.1 µM | NCI-H460 4.8 µM | NCI-H522 8.65 µM | NCI/ADR-RES 5.19 µM | OVCAR-3 2.52 µM | OVCAR-4 7.76 µM | OVCAR-5 48.5 µM | OVCAR-8 21.8 µM | PC-3 7.41 µM | RPMI-8226 10 µM | SF-268 7.5 µM | SF-295 6.81 µM | SF-539 23.7 µM | SK-MEL-28 23.8 µM | SK-MEL-2 28.4 µM | SK-MEL-5 15.5 µM | SK-OV-3 13.7 µM | SN12C 5.96 µM | SNB-19 25.7 µM | SNB-75 18.3 µM | SR 3.29 µM | SW-620 27 µM | T47D 14.7 µM | TK-10 35.3 µM | U-251 11.1 µM | UACC-257 29 µM | UACC-62 8.36 µM | UO-31 25.8 µM
